The text below walks through data of paper PMC7154858, “Transcriptional and Biochemical Characterization of Cytosolic Pyruvate Kinases in Arabidopsis thaliana” (Plants, 2020).

Molecules are shown by their SMILES.

What all share (assay): LDH-coupled assay, single effector concentration
Common to all, as to format: biochemical

In test [1] the target is T1, cPK3 (Arabidopsis thaliana, UniProt Q9FFP6).
T1 construct: gene MBK5.16; printed locus At5g56350 duplicates cPK2 (apparent misprint); primer begins MSNIDIE, unlike cPK2; full-length cDNA in pET16b, N-terminal His tag (6x/5x), E. coli BLR21, Ni-NTA
T1 sequence (Q9FFP6 1-510): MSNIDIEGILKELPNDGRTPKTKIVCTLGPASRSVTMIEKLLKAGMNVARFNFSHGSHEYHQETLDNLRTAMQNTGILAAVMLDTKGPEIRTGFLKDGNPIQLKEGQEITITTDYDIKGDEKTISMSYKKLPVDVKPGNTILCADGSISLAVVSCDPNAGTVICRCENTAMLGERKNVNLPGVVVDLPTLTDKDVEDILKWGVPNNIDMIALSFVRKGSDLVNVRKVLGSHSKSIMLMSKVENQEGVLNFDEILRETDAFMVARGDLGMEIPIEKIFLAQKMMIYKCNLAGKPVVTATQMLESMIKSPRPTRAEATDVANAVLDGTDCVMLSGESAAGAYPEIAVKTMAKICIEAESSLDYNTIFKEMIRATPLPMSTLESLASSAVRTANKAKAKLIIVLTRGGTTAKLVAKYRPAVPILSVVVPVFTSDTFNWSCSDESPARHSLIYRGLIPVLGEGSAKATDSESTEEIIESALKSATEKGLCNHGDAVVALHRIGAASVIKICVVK
The settings on record: 2000 µM; saturating ADP and PEP; 10 mM MgCl2, pH 7.5, 25 °C; inhibitor (also reaction product).

Test [2] concerns the target T2, cPK1 (Arabidopsis thaliana, UniProt Q9FNN1).
T2 construct: gene MAH20.13; full-length cDNA in pET16b, N-terminal His tag (6x in Results, 5x in Methods), E. coli BLR21, Ni-NTA; primer begins MSNIDIEG
T2 sequence (Q9FNN1 1-510): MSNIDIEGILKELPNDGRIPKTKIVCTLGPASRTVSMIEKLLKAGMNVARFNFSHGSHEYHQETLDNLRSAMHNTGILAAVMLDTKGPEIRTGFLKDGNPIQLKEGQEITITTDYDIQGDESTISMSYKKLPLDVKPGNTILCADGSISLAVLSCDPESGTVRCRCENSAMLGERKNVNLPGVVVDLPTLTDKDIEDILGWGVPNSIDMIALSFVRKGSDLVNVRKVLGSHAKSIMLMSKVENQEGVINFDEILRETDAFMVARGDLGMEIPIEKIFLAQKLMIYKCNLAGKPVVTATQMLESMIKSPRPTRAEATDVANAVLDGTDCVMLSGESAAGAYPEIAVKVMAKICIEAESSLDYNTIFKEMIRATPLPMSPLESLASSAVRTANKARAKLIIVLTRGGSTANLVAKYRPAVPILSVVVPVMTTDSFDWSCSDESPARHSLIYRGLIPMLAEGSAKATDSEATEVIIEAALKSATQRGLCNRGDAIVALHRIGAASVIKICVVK
The settings on record: 2000 µM; saturating ADP and PEP; 10 mM MgCl2, pH 7.5, 25 °C; inhibitor (also reaction product).

In test [3] the target is T3, cPK2 (Arabidopsis thaliana, UniProt Q9FM97).
T3 construct: gene MCD7.8; full-length cDNA in pET16b, N-terminal His tag (6x in Results, 5x in Methods), E. coli BLR21, Ni-NTA; primer begins MAMIEQ
T3 sequence (Q9FM97 1-498): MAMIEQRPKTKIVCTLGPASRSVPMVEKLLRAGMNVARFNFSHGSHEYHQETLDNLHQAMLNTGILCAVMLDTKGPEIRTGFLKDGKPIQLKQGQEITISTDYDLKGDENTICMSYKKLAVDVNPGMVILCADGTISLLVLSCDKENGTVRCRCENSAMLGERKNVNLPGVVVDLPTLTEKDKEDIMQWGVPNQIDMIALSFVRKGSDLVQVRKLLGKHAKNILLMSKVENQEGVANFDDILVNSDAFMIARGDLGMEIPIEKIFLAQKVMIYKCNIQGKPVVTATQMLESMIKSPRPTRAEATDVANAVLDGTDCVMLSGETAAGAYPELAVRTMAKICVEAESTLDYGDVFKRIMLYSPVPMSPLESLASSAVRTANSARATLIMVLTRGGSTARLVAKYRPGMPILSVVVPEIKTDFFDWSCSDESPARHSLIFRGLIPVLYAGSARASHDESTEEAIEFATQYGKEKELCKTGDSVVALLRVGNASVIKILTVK
Particulars: 2000 µM; saturating ADP and PEP; 10 mM MgCl2, pH 7.5, 25 °C; inhibitor (also reaction product).

In test [4] the target is T2, cPK1. The settings on record: 200 µM; saturating ADP and PEP; 10 mM MgCl2, pH 7.5, 25 °C; inhibitor.
In test [5] the target is T1, cPK3. The settings on record: 4000 µM; saturating ADP and PEP; 10 mM MgCl2, pH 7.5, 25 °C; allosteric inhibitor (stated).
Test [6] addresses T2, cPK1. Particulars: 4000 µM; saturating ADP and PEP; 10 mM MgCl2, pH 7.5, 25 °C; allosteric inhibitor (stated).
A further test has as its target T4, cPK5 (Arabidopsis thaliana, UniProt F4J867).
T4 construct: gene At3g52990; full-length cDNA in pET16b, N-terminal His tag (6x in Results, 5x in Methods), E. coli BLR21, Ni-NTA; primer begins MHSSHL
T4 sequence (F4J867 1-527): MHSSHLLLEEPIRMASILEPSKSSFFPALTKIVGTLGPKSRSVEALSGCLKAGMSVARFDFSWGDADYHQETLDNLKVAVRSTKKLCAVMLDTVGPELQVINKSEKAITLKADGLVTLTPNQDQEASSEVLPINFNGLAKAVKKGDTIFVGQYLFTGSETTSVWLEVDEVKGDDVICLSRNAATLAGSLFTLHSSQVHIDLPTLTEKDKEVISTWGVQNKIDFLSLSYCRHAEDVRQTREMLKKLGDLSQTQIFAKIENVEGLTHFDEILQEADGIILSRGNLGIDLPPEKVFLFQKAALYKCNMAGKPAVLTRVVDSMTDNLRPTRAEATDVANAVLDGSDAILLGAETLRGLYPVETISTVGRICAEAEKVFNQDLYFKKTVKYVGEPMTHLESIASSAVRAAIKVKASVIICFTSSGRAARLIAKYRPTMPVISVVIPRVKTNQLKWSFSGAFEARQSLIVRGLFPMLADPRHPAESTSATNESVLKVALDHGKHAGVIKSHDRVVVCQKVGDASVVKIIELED
The settings on record: 4000 µM; saturating ADP and PEP; 10 mM MgCl2, pH 7.5, 25 °C; allosteric inhibitor (stated).

The target in test [7] is T3, cPK2. The settings on record: 4000 µM; saturating ADP and PEP; 10 mM MgCl2, pH 7.5, 25 °C; allosteric inhibitor (stated).
The next test concerns the target T5, cPK4 (Arabidopsis thaliana, UniProt Q9SJQ0).
T5 construct: gene At2g36580; full-length cDNA in pET16b, N-terminal His tag (6x in Results, 5x in Methods), E. coli BLR21, Ni-NTA; primer begins MHSSHL
T5 sequence (Q9SJQ0 1-527): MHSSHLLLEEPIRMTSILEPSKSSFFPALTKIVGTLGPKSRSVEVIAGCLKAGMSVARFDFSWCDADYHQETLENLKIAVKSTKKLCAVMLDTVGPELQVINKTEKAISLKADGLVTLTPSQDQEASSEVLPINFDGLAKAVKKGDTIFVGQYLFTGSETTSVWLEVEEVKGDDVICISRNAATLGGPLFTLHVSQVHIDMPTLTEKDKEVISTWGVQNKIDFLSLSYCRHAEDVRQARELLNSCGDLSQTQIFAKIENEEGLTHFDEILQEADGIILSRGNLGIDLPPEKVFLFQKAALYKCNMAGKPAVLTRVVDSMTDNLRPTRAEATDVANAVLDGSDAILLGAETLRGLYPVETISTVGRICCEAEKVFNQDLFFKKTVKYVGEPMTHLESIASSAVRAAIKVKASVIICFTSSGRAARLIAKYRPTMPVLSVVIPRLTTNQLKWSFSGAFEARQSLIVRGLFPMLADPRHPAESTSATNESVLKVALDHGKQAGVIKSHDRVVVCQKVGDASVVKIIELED
Particulars: 4000 µM; saturating ADP and PEP; 10 mM MgCl2, pH 7.5, 25 °C; allosteric inhibitor (stated).

Test [8] addresses T2, cPK1. Particulars: 1000 µM; saturating ADP and PEP; 10 mM MgCl2, pH 7.5, 25 °C; activator.

Take `Nc1ncnc2c1ncn2[C@@H]1O[C@H](COP(=O)(O)OP(=O)(O)OP(=O)(O)O)[C@@H](O)[C@H]1O` [ATP]: the ATP on cPK3 [1] is on record as 27%; at cPK1 [2], 7%; at cPK2 [3] it was 76%.
In turn, `N[C@@H](CC(=O)O)C(=O)O` [aspartate] showed an Aspartate at cPK1 [4] of 69%.
Regarding `O=C(O)CC(O)(CC(=O)O)C(=O)O` [citrate], the Citrate on cPK3 [5] is recorded as 7%; on cPK1 [6], 17%; at cPK5, 2%; at cPK2 [7] it was 26%; on cPK4, 3%.
Regarding `O=P(O)(O)OC[C@H]1OC(O)(COP(=O)(O)O)[C@@H](O)[C@@H]1O` (stereo partly shown) [F1.6BP], at cPK1 [8], the F1.6BP came to 122%.
